“Also recorded” adds a separate entry of the source.
Legend:
[1] = tested on: Naive CD4+ CD25− FoxP3− cells; assay: Treg cell differentiation with RXR agonist in the presence of pan-RAR antagonist; format: cell-based, mouse; details: 1 nM or 10 nM 194310 with IRX4204 at 1.0 nM; Treg conditions
Procedure: Naive CD4^+ CD25^− FoxP3^− cells were purified from a Foxp3-GFP mouse using flow cytometry by sorting and isolating based upon a GFP^− phenotype. These cells were then cultured under Treg cell differentiation conditions by treating the cells with αCD3 and αCD28 polyclonal antibodies in the presence of IL-2 and TGF-β. […] The cultured cells were then assayed for the expression of Foxp3. […] However, this partial inhibition of Fox3p expression may actually be due to the blocking of the effects of endogenous RA in the culture medium.

[2] = tested on: cuprizone plus rapamycin (CR) demyelination in C57BL/6J mice
[3] = tested on: EAE in B6 mice; assay: EAE dose titration experiment with spleen and CNS flow cytometry; format: in vivo, mouse; details: 200 μg/day vs vehicle control
Procedure: A dose titration experiment was also conducted in EAE mice. EAE was induced in 28 B6 mice with MOG/CFA and PT as above. Mice were scored on day 7 as indicated above and divided into groups by score so means are as equal as possible.
At the completion of the experiment, the vehicle control and 200 μg/day groups were euthanized and spleen and CNS samples obtained.
Additionally, CD4+ CD25hi cells (generally consisting of TReg) were reduced, although the frequency was not altered (FIGS. 9A and 9B).
Restimulation with PMA/lonomycin was used to help detect the cytokine production.

[4] = biological target: T1, RXRγ (Homo sapiens, UniProt P48443); assay: RXR homodimer transactivation assay (rCRBPII/RXRE-tk-Luc reporter) in CV-1 cells; format: cell-based
T1 construct: an expression construct including a full length RXRα, RXRβ, or RXRγ; expressed in transfected cells; host or cells: CV-1
T1 sequence (P48443 1-463): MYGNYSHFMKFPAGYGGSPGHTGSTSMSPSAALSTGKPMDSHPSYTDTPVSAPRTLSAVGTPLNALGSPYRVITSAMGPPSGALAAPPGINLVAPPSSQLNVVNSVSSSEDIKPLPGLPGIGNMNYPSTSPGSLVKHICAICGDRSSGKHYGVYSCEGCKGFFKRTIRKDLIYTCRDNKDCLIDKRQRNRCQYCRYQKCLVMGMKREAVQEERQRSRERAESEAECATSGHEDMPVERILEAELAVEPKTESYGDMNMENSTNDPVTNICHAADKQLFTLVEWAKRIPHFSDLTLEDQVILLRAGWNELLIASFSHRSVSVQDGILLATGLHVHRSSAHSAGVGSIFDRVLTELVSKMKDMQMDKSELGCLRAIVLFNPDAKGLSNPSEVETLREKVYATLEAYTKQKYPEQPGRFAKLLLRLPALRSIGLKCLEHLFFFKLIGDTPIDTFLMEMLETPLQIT
Procedure: To determine whether a RXR agonist can mediate its effects via RXRα receptor homodimers, RXRβ receptor homodimers, RXRγ receptor homodimers, or any combination thereof, or the corresponding RAR/RXR heterodimers, receptor-mediated transactivation assays were performed. For transactivation assays assessing RXR homodimer signaling, CV-1 cells were transfected with 1) an expression construct including a full length RXRα, RXRβ, or RXRγ; and 2) a rCRBPII/RXRE-tk-Luc reporter construct that included RXR homodimer-specific RXRE/DR1 responsive element linked to a luciferase gene. For transactivation assays assessing RAR/RXR heterodimer signaling, CV-1 cells were transfected with 1) an expression construct comprising a fusion protein including an estrogen receptor (ER) DNA binding domain linked to the ligand binding domain of RARα, RARβ, or RARγ and 2) a ERE-tk-Luc reporter construct that included an estrogen receptor responsive element linked to a luciferase gene. The ER-RAR fusion proteins provided an accurate readout of only the transfected ER-RAR. […] Data are mean values ±SE from five independent experiments.

[5] = tested on: cuprizone/rapamycin demyelination in C57BL/6J mice; assay: 12-week cuprizone/rapamycin demyelination model, 6 weeks of treatment (remyelination); format: in vivo, mouse; details: 10 mg/kg PO daily for 6 weeks after 12 weeks CR
Source text: All animals were sacrificed after 12 weeks of CR or after further 6 weeks of treatment to evaluate myelin in white matter (corpus callosum) and gray matter (hippocampus and cortex). In addition, the size of myelinated axons was quantified and the large myelinated axons were further assessed by 3D-electron microscopy (3D-EM). A total of 40 animals were included in the study, where all 40 animals received CR demyelination for 12 weeks. After demyelination, a subset (n=10) of animals are sacrificed to serve as controls to assess baseline demyelination. […] Floating brain sections are immunostained with myelin prolipid protein (PLP) to visualize and quantify myelin in gray matter, hippocampus (FIG. 16A) and cortex (FIG. 16B).

[6] = tested on: ethidium bromide demyelination of caudal cerebellar peduncles in one year old rats; assay: Focal toxin (ethidium bromide) induced rat model of demyelination; format: in vivo; details: IRX4204 10 mg/kg/day oral
Procedure: The experiment uses rats of relatively advanced age (1 year) since such rats undergo remyelination in a less efficient manner, thereby providing data that are more relevant to the clinical treatment of human patients with multiple sclerosis or other demyelination disorders.
Focal demyelination is induced in one year old rats (approximately 300 g in weight) by injecting stereotactically 5 μl of ethidium bromide solution (0.01% vol/vol in saline) in a bilateral manner into the caudal cerebellar peduncles (CCP). […] The rats are killed on day 24 post-ethidium bromide treatment for analysis of remyelination by quantitative polymerase chain reaction (qPCR) and microscopy.

[7] = biological target: RARα (Homo sapiens, UniProt P10276); details: at ≥1 μM
Procedure: To determine whether a RXR agonist can mediate its effects via RXRα receptor homodimers, RXRβ receptor homodimers, RXRγ receptor homodimers, or any combination thereof, or the corresponding RAR/RXR heterodimers, receptor-mediated transactivation assays were performed. For transactivation assays assessing RXR homodimer signaling, CV-1 cells were transfected with 1) an expression construct including a full length RXRα, RXRβ, or RXRγ; and 2) a rCRBPII/RXRE-tk-Luc reporter construct that included RXR homodimer-specific RXRE/DR1 responsive element linked to a luciferase gene. For transactivation assays assessing RAR/RXR heterodimer signaling, CV-1 cells were transfected with 1) an expression construct comprising a fusion protein including an estrogen receptor (ER) DNA binding domain linked to the ligand binding domain of RARα, RARβ, or RARγ and 2) a ERE-tk-Luc reporter construct that included an estrogen receptor responsive element linked to a luciferase gene. […] Data are mean values ±SE from five independent experiments.

[8] = tested on: oligodendrocyte precursor cells (OPCs); assay: Oligodendrocyte precursor cell differentiation (PLP-EGFP, Cellomics); format: cell-based, mouse; details: compared to negative control (DMSO)
Source text: OPCs were generated from a neurosphere culture of E14.5 PLP-EGFP (on C57BL/6J background) mouse brains. […] The EGFP expressing cells were quantified with Cellomics Neuronal Profiling Algorithm.
The EGFP expressing cells in controls and all compounds were quantified with Cellomics Neuronal Profiling Algorithm.

[9] = tested on: Naive CD4+ CD25− FoxP3− cells; assay: T cell differentiation under Th17 cell differentiation conditions (Foxp3, IL-17A); format: cell-based, mouse; details: 0, 1, 10, 100 nM, with increasing concentration
Procedure: To determine whether a RXR agonist can regulate T cell differentiation, the ability of an RXR agonist to promote Treg cell differentiation and inhibit Th17 cell differentiation under Th17 cell differentiation conditions was assessed by monitoring Foxp3 and IL-17A expression. Naive CD4^+ CD25^− FoxP3^− cells were purified from a Foxp3-GFP mouse using flow cytometry by sorting and isolating based upon a GFP^− phenotype.

[10] = biological target: T2, FXR/RXR (Homo sapiens, UniProt P19793); assay: Permissive heterodimer transactivation assay, 3x(IBABP/IRI)-tk-Luc in CV-1 cells; format: cell-based; details: 20 hr; relative to GW4064
T2 construct: expressed in transfected cells; host or cells: CV-1
Source text: (§1) For PPARγ: CV-1 cells were transfected with 3×(rAOX/DR1)-tk-Luc reporter gene and an expression vector for PPARγ. For FXR:CV-1 cells were transfected with 3×(IBABP/IRI)-tk-Luc reporter gene and vectors for FXR and RXRα. For LXR:CV-1 cells were transfected with 3×(PLTP/LXRE)-tk-Luc reporter gene with vectors for LXRα or LXRβ. For Nurr1: COS7 cells were transfected with 3×NBRE-tk-luc reporter gene and full length Nurr-1 with or without full-length RXRα plasmid. […] Luciferase data were normalized to co-transfected β-gal activity. Luciferase activity was expressed as percent of maximal activity obtained using specific agonists. Rosiglitazone (PPARγ), GW4064 (FXR), T0901317 (LXR).

[11] = tested on: LXRβ/RXR; assay: Permissive heterodimer transactivation assay, 3x(PLTP/LXRE)-tk-Luc in CV-1 cells; format: cell-based; details: 20 hr; relative to T0901317
Source text: as §1

[12] = tested on: LXRα/RXR; assay: as above; format: cell-based; details: 20 hr; relative to T0901317
Source text: as §1

[13] = tested on: EAE in C57BL/6 (B6) mice; assay: CNS infiltrating cells in EAE mice (FACS, day 20); format: in vivo, mouse; details: day 20 after immunization, vs vehicle control
Procedure: To determine whether a RXR agonist can reduce central nervous system (CNS) infiltrating cells, C57BL/6 (B6) mice were treated as described in Example 6. On day 20 after immunization, mice were sacrificed and perfused with phosphate buffered saline (PBS). Brain and spinal cord tissue was isolated, digested with DNase and Liberase DL (Roche Diagnostics, Indianapolis, Ind.) for 30 minutes, and homogenized through 70 micron nylon mesh filters. Resulting cells were placed over a Percoll gradient to remove myelin. The remaining cells (microglia and CNS infiltrating cells) were counted, stained for molecules of interest, and run on a flow cytometer. Based on the frequencies obtained by FACS of these cell populations, total cell numbers of CNS infiltrating leukocytes expressing CD45, including CD4^+ T cells and CD11c^+ CD11b^+ myeloid dendritic cells (DC), were calculated.

T2 sequence (Q96RI1 whole entry partner): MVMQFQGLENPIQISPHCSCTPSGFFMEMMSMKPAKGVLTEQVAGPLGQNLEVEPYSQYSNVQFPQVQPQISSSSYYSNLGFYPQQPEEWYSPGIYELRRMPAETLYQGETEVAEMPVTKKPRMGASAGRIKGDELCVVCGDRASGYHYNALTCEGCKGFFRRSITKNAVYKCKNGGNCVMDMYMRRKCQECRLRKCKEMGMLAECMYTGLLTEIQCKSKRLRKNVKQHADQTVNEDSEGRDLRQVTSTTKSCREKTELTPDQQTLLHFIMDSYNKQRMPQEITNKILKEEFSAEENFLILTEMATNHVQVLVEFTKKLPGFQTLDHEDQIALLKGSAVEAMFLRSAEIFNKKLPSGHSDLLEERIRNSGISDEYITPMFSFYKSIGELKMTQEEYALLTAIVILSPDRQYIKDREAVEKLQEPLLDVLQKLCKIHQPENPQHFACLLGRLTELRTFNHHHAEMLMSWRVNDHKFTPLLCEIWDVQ
T2 sequence (P19793 whole entry): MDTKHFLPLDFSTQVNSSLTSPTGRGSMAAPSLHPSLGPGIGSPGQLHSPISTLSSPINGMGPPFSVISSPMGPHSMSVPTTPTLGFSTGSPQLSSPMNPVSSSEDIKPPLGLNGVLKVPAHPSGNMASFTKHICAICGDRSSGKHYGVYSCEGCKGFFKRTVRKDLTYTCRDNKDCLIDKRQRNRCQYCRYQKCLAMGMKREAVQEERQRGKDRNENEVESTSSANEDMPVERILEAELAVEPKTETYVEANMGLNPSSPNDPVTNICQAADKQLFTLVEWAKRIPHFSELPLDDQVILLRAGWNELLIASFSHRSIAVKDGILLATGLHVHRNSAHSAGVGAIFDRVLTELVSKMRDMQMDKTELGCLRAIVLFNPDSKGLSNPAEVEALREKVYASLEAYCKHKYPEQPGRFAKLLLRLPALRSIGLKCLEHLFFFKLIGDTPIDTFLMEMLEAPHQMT
Chain of RARα (P10276 183-417 limits assumed, species assumed): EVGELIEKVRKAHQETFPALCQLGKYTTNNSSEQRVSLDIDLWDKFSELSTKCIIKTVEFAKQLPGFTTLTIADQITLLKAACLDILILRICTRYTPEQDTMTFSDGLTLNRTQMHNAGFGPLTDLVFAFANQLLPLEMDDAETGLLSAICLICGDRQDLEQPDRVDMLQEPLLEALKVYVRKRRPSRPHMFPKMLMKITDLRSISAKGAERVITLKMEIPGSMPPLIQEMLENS

SMILES | effect on induction of Foxp3 expression by RXR agonist [1] | health concerns during the treatment phase ([2]; 6 weeks) | number of SMI32 positive axonal ovoids in corpus callosum ([2]; compared to Vehicle, 6 weeks concurrent with CR) | Iba1 staining (microglial/macrophage activation) in corpus callosum ([2]; compared to vehicle) | CD4+ CD25hi cells frequency, spleen [3] | co-expression of IFNγ and IL-17A by CD4 T cells in CNS [3] | Efficacy (% of 1 μM IRX4204) RXRγ [4] | size of myelinated axons in the corpus callosum [5] | densities of Olig2+ oligodendrocyte lineage cells and CC1+ differentiated oligodendrocytes in lesions ([6]; day 7 to 21, ± 20 ng/g s.c. thyroxine) | Mbp and Pdgfra expression (real-time qPCR of lesion samples) ([6]; ± 20 ng/g s.c. thyroxine) | RARα activity detected [7] | OPC differentiation into oligodendrocytes (EGFP positive cells) [8] | Foxp3 expression (Treg cells) [9] | IL-17A expression (Th17 cells) [9] | activation of FXR/RXR heterodimer [10] | activation of LXRβ/RXR heterodimer [11] | activation of LXRα/RXR heterodimer [12] | infiltration of CD4+ cells into CNS [13] | infiltration of CD11c+ CD11b+ cells (myeloid DC) into CNS [13]
CCc1ccc(C2=CC(C)(C)Sc3ccc(C#Cc4ccc(C(=O)O)cc4)cc32)cc1 [Compound 194310] | only partially blocked | – | – | – | – | – | – | – | – | – | – | – | – | – | – | – | – | – | –
CC(/C=C/[C@@H]1C[C@]1(C)c1ccc2c(c1)C(C)(C)CCC2(C)C)=C\C(=O)O [IRX4204, 3,7-dimethyl-6(S),7(S)-methano,7-[1,1,4,4-tetramethyl-1,2,3,4-tetrahydronaphth-7-yl]2(E),4(E) heptadienoic acid] | – | no observed health concerns | not statistically different from the Vehicle | no difference | not altered | not significantly different between groups | 0.09 ± 0.01 100 % of 1 μM IRX4204 | significant increase | increased | increase | minimal activity | significant increase; also recorded: dose dependent increase | increased | decreased | not to transactivate; also recorded: does not activate | not to transactivate; also recorded: does not activate | not to transactivate; also recorded: does not activate | significant reduction | significant reduction

Reference: US11690832B2, “Treatment of autoimmune diseases with combinations of RXR agonists and thyroid hormones” (Io Therapeutics, Inc., priority 2016, dated 2023)
